Patent US5821230A, “GnRH antagonist decapeptides” (Ferring BV, priority 1997, dated 1998)
*1 amine or outer side, *2 acyl side, *3 side chain or, on linkers, in order; H or OH if unused. Where a SMILES comes first, the peptide text is derived from it. Side-chain parts run from the residue outwards. [ ]: non-standard residue; d: D form. dPhe(4-NH2) = Nc1ccc(C[C@@H](N)C(=O)O)cc1; dPhe(4-Cl) = N[C@H](Cc1ccc(Cl)cc1)C(=O)O; Phe(4-NH2) = Nc1ccc(C[C@H](N)C(=O)O)cc1; d2Nal = N[C@H](Cc1ccc2ccccc2c1)C(=O)O; Lys(iPr) = CC(C)NCCCC[C@H](N)C(=O)O; dDap = NC[C@@H](N)C(=O)O; CO = O=C([*:1])[*:2]

Legend:
LH secretion = test: in vivo suppression of circulating LH levels in castrated male Sprague-Dawley rats treated subcutaneously; set-up: species or system rat; conditions: for suppression of LH compared with a reference peptide: standard in vivo rat test as in Example 1; for in vivo suppression of LH secretion compared with a reference peptide: dosage not printed at the place
Experimental: The peptide is hereinafter referred to as Peptide No. 1 and is assayed in vivo to determine its effectiveness to suppress secretion of LH in rats. Measurement of circulating LH levels in castrated male Sprague-Dawley rats treated subcutaneously with the peptide is carried out as reported in C. Rivier et al. Biol. Reproduc., 1983. 29, 374-378. The peptides are first dissolved at a concentration of 1.0 or 10 mg/ml in bacteriostatic water and then further diluted in 0.04M phosphate buffer containing 0.1% BSA. Subsequent dilutions are made in phosphate buffer. The peptides are injected sc, and blood samples (300 μl) are collected under metotane anesthesia. Sera (50 […]) are tested for LH levels in duplicate using reagents provided by the National Pituitary and Hormone Distribution Program of the NIDDK. […] However, 96 hours following injection, the LH levels are only about 75% of those of the Acyline-injected rats.

[1] = hydrophilicity by RP-HPLC retention time, TEAP pH 7.0 gradient; format: physicochemical; conditions: 40% to 70% Buffer B over 30 minutes
Experimental: Hydrophilicity is tested by measuring retention time using RP-HPLC with a gradient of 40% Buffer B to 70% Buffer B over 30 minutes, with Buffer A being TEAP pH 7.0 and Buffer B being 70% CH3 CN and 30% Buffer A at pH 7.0.

[2] = examination of injected rats for tolerance and gelling at the point of injection; format: in vivo; conditions: 50 μg per rat sc
[3] = dosage of 50 micrograms per rat sc

Row | Molecule | duration of action, as classed in words (LH secretion; [3]) | suppression of LH compared with a reference peptide (LH secretion; [3]) | hydrophilicity compared with a reference peptide [1] | gelling at the point of injection [2] | tolerance of the peptide in injected rats [2] | in vivo suppression of LH secretion compared with a reference peptide (LH secretion)
1 | Ac-β-D-2Nal-D-4Cpa-D-Dpr(methylcarbamoyl)-Ser-4Aph(Hor)-D-Aph(Hor)-Leu-Lys(isopropyl)-Pro-D-Ala-NH2 [Example 5E] | long-acting | substantially as active as Acyline in suppressing LH level at 1, 2 and 3 days | more hydrophilic than Acyline | – | – | –
2 | Ac-β-D-2Nal-D-4Cpa-Gln-Ser-4Aph(hydroorotyl)-D-4Amf(methylcarbamoyl)- Leu-Lys(isopropyl)-Pro-D-Ala-NH2 [Example 8F] | – | substantially as effective as Acyline for 3 days | more hydrophilic than Acyline | – | – | –
3 | CNC(=O)NC[C@@H](NC(=O)[C@@H](Cc1ccc(Cl)cc1)NC(=O)[C@@H](Cc1ccc2ccccc2c1)NC(C)=O)C(=O)N[C@@H](CO)C(=O)N[C@@H](Cc1ccc(NC(C)=O)cc1)C(=O)N[C@H](Cc1ccc(NC(C)=O)cc1)C(=O)N[C@@H](CC(C)C)C(=O)N[C@@H](CCCCNC(C)C)C(=O)N1CCC[C@H]1C(=O)N[C@H](C)C(N)=O [Peptide No. 1, Ac-D-2Nal-(4Cl)D-Phe-D-Dpr(methylcarbamoyl)-Ser-4Aph (acetyl)-D-4Aph(acetyl)-Leu-Lys(isopropyl)-Pro-D-Ala-NH2] (Ac-[d2Nal][dPhe(4-Cl)][dDap]([CO-NHMe])S[Phe(4-NH2)](Ac)[dPhe(4-NH2)](Ac)L[Lys(iPr)]P[dA]-NH2) | – | – | – | no significant gelling at the point of injection being detectable | very well tolerated | –
4 | Ac-D-2Nal-D-4Cpa-D-Dpr(methylcarbamoyl)-Ser-4Aph(Gab)(atz)-D-4Aph(Gab)(atz)-Leu-ILys-Pro-D-Ala-NH2 [Peptide No. 5A] | – | – | more hydrophilic than Antide | – | – | longer duration of in vivo suppression of LH secretion than Acyline
5 | Ac-D-2Nal-D-4Cpa-D-Dpr(methylcarbamoyl)-Ser-4Aph(β-Ala)(atz)-D-4Aph(β-Ala)(atz)-Leu-ILys-Pro-D-Ala-NH2 [Peptide No. 5B] | – | – | more hydrophilic than Antide | – | – | longer duration of in vivo suppression of LH secretion than Antide
